According to patent US20260091141A1, “GENE EDITING METHODS, SYSTEMS, AND COMPOSITIONS FOR TREATING SPINAL MUSCULAR ATROPHY” (The Broad Institute, Inc., priority 2023, published 2026):

Assays:
SMN protein [1] = assay: SMN protein levels in Δ7SMA mESCs by Western blot, normalized to histone H3; type: cell-based, mouse
Excerpt: Precise deletions are defined as those that remove ≥4 nt of ISS-N1 including ≥4 nt of the 3′-hnRNP A1/A2 domain. […] Precise deletions are defined as those that enable the addition of five or more C-terminal amino acids to SMNΔ7 (SMNΔ7mod) to restore protein stability. […] The observed fraction of precise deletions, splice acceptor (SA) deletions, and other indels are shown. […] FIG. 1I provides stacked bar charts showing SMN2 splice variants following editing with C-nuc and C-CBE, as measured by high-throughput sequencing of mRNA transcripts amplified with exon 6 and polyA-primers. Splicing activity of exon 7 spliced and unspliced sub-fractions is shown. Asterisks indicate *≤0.05. **≤0.01, and ***≤0.005.
(§1) Risdiplam doses of 1.0, 0.5, 0.25, or 0.1 μM were used (shown from left to right in the graph). […] The asterisk indicates p<0.05 by Welch's two-tailed t-test. […] UG=unrelated guide; NT=no treatment.
(§2) UG-unrelated guide; NT=no treatment.

SMN2 transcript = assay: SMN2 / exon 7 mRNA transcript levels in Δ7SMA mESCs; type: cell-based, mouse
Protocol: as §1, §2

SMN2 exon 7 splicing = SMN2 exon 7 splicing by RT-PCR (exons 6 to 8) and automated electrophoresis in Δ7SMA mESCs; type: cell-based, mouse
Protocol: To assess whether nuclease-mediated editing of ISS-N1 improved exon 7 splicing, reverse-transcription PCR (RT-PCR) of SMN2 was performed from exons 6 to 8, and SMNΔ7 and full-length SMN products were quantified by automated electrophoresis (FIG. 1C).
For Δ7SMA mESCs nusinersen experiments, cells were transfected with 20 nM of fully 2′-O-methoxyethyl (MOE)-modified ASO (5′-[…]-3′) (SEQ ID NO: 469) on a phosphorothioate backbone (TriLink), using Lipofectamine 3000 (ThermoFisher Scientific). After 24 hours media was replaced every other day with fresh mESC+2i media. For splicing rescue by risdiplam, mESC media was supplemented with 0.1-1 μM of risdiplam (RG7916, Selleck Chemicals LLC) in DMSO, as indicated. Cells were harvested at the indicated timepoints.
mRNA was isolated from […] mESCs with the RNeasy mini kit (Qiagen), and reverse transcription was performed using SuperScript IV (ThermoFisher) according to the manufacturer's protocols. For targeted SMN2 qPCR and splice product quantitation by automated electrophoresis, reverse transcription was performed with random hexamers. Splicing inclusion of SMN2 exon 7 was quantified by automated electrophoresis using Tape Station (Agilent). For unbiased SMN2 splice product analysis by high-throughput sequencing, reverse transcription was performed using a custom oligo-dT primer with a Read 2 Illumina sequencing stub. […]

SMN protein [2] = assay: Western blot of SMN protein in Δ7SMA mESCs; type: cell-based, mouse; details: normalized to histone H3
Protocol: Cells harvested for western blot were washed with ice-cold PBS and incubated at 4° C. for 30 min while rocking in RIPA lysis buffer (ThermoFisher) supplemented with 1 mM PMSF (ThermoFisher) and complete EDTA-free protease inhibitor cocktail (Roche). Lysates were clarified by centrifugation at 12,000 rpm at 4° C. for 20 min. Lysates were normalized using BCA (Pierce BCA Protein Assay Kit) and combined with 4× Laemelli buffer (BioRad) and DTT (ThermoFisher) at a final concentration of 1 mM. 10 μg of reduced protein were loaded per gel lane, and transfer was performed with an iBlot 2 dry blotting system (ThermoFisher) using the following program: 20V for 1 min, then 23 V for 4 min, then 25 V for 2 min, for a total transfer time of 7 minutes. Blocking was performed at room temperature for 60 minutes with block buffer: 1% BSA in TBST (150 mM NaCl, 0.5% Tween-20, 50 mM Tris-Cl, pH 7.5).
Membranes were then incubated in primary antibody diluted in block buffer for 2 hours at room temperature. After a washing, secondary antibodies diluted in TBST were added and incubated for 1 hour at room temperature. Membranes were washed again and imaged using a LI-COR Odyssey. Wash steps were 3×5-minute washes in TBST. […]

SMN2 mRNA = assay: RT-qPCR of SMN2 mRNA abundance in Δ7SMA mESCs; type: cell-based, mouse
Protocol: To investigate how exon 8 SA disruption affects SMN2 transcripts, reverse transcription quantitative PCR (RT-qPCR) was performed to measure the abundance of SMN2 mRNA in treated and control Δ7SMA mESCs. The terminal sequence of SMN2, including intron 7 and the 3′ untranslated region (UTR) of exon 8, encode negative regulators of gene expression and mRNA transcript stability^21,71,72. Alternative splicing at the terminus of SMN2 therefore may result in increased SMN protein levels. […]
To investigate whether risdiplam and nusinersen treatment of Δ7SMA mESCs affect SMN2 transcript abundance, RT-qPCR was performed, and SMN2 mRNA levels were quantified in treated and genome edited cells (FIG. 7G). […] In contrast, a 1.8-fold reduction of SMN2 mRNA was detected 48 hours after nusinersen treatment relative to untreated Δ7SMA mESCs (Welch's two-tailed t-test p<0.005) that explains the relative reduction in SMN protein levels compared to the base editing approach (FIG. 2G).
mRNA was isolated from […] mESCs with the RNeasy mini kit (Qiagen), and reverse transcription was performed using SuperScript IV (ThermoFisher) according to the manufacturer's protocols. For targeted SMN2 qPCR and splice product quantitation by automated electrophoresis, reverse transcription was performed with random hexamers. […]

Δ7SMA mice = assay: Electrophysiological measurements (CMAP, MUNE) in Δ7SMA mice; type: in vivo, mouse; details: PND12, 2.5×10^13 vg/kg Zolgensma, 0.1 mg/kg risdiplam IP daily
Protocol: Compound muscle action potential (CMAP) amplitude and motor unit number estimation (MUNE) from the gastrocnemius muscle of treated animals was performed to assess loss of motor neuron functional integrity, a key feature of SMA and preclinical SMA models^131. […] MUNE were reduced by 50% in untreated Δ7SMA animals compared to heterozygous mice. […] In contrast, little or no improvement in MUNE was observed following Zolgensma or 0.1 mg/kg risdiplam administration (50% and 75% relative to heterozygotes respectively, Kruskal-Wallis test p>0.6). […] Thus, neonatal ICV injection of AAV9-ABE measurably rescues SMA pathophysiology of spinal motor neurons.
Compound muscle action potential (CMAP) and motor unit number estimate (MUNE) measurements were performed as previously described^178. Briefly, at PND12 the right sciatic nerve was stimulated with a pair of insulated 28-gauge monopolar needles (Teca, Oxford Instruments Medical, NY) placed in proximity to the sciatic nerve in the proximal hind limb.
Recording electrodes consisted of a pair of fine ring wire electrodes (Alpine Biomed, Skovlunde, Denmark). […]
For MUNE, an incremental stimulus technique similar to a previously described procedure was used^178. […] The peak-to-peak amplitude of each individual incremental response was calculated by subtracting the amplitude of the prior response. […]

SMN protein [3] = details: patient tissues; cited from earlier work
SMN protein [4] = details: SMA patients; cited from earlier work
DNA = details: SpCas9 mutation relative to SEQ ID NO: 209; UniProtKB Q99ZW2 entry; cited from earlier work

Compound	SMN protein levels, increase compared to Δ7SMA mESCs (SMN protein [1]) [fold]	effect on SMN2 transcript levels (SMN2 transcript)	exon 7 splicing (SMN2 exon 7 splicing) [%]	increase in SMN protein levels relative to untreated (SMN protein [2]) [fold]	increase in SMN2 transcripts relative to untreated cells (SMN2 mRNA) [fold]	MUNE relative to heterozygotes (Δ7SMA mice) [%]	increase of SMN protein levels (SMN protein [3]) [fold]	increase of SMN protein levels in patient tissues (SMN protein [4]) [fold]	Function/Characteristic (as reported) (DNA)
Cc1cn2nc(-c3cc(=O)n4cc(N5CCNC6(CC6)C5)ccc4n3)cc(C)c2n1 [risdiplam]	9.5	interfered with the endogenous regulation of SMN transcript levels	89±4.3	9.1	1.6	75	~2	~2	–
H840A: SpCas9 mutation relative to SEQ ID NO: 209	–	–	–	–	–	–	–	–	Nickase mutant which cleaves the non-
